In patent US11197878B2, “Anti-inflammatory composition including novel quercetin-based compound” (AMOREPACIFIC CORPORATION, priority 2017, dated 2021):

Legend:
Format in all cases: cell-based
IL-6 (Interleukin 6) = assay: Test for inhibiting generation of IL-6 in H2O2-stimulated fibroblast (ELISA); conditions: for inhibition at 100 µg/mL: Fibroblast, 100 μg/ml, {1−(test sample−control)/(H2O2−control)}×100, read-out: Inhibition effect according to Equation 1, IL-6; for IL-6: fibroblast culture medium, H2O2 500 μM 24 hours, then test material (31, 32: 100 μg/ml) 48 hours, ELISA
Experimental: (§1) Fibroblast (PromoCell, Germany) was inoculated in a 6-well culturing plate at a concentration of 1×10^5 cells, and cultured in a 5% CO2 incubator at 37° C. for 24 hours. The well was treated with H2O2 500 μM and stimulated for 24 hours, and then were treated with quercetin3-O-[3-O″-(E)-p-coumaroyl][β-D-glucopyranosyl-(1→3)-O-α-L-rhamnopyranosyl-(1→6)-O-β-D-glucopyranoside] (‘New Material 31’) and quercetin3-O-[3-O″-(E)-p-coumaroyl][α-L-rhamnopyranosyl-(1→6)-O-β-D-glucopyranoside]) (‘New Material 32’) at a concentration of 100 μg/ml, respectively, and reacted for 48 hours. After the reaction was finished, the culture medium was collected and the ELISA analysis was performed. Herein, α-bisabolol, which is the material typically used as an anti-inflammatory agent and abirritant, was used as a control. As PGE2, a kit of Assay Design® was used, and as IL-6 and IL-8, a kit of Endogen® was used, and the test was carried out according to the methods prescribed in the manuals of the respective companies. (‘31’ refers to New Material 31, and ‘32’ refers to New Material 32) Inhibition effect={1−(test sample−control)/(H2O2−control)}×100 <Equation 1>

IL-8 (Interleukin 8) = assay: Test for inhibiting generation of IL-8 in H2O2-stimulated fibroblast (ELISA); conditions: for inhibition at 100 µg/mL: Fibroblast, 100 μg/ml, {1−(test sample−control)/(H2O2−control)}×100, read-out: Inhibition effect according to Equation 1, IL-8; for IL-8: fibroblast culture medium, H2O2 500 μM 24 hours, then test material (31, 32: 100 μg/ml) 48 hours, ELISA
Experimental: as §1

PGE2 (Prostaglandin E2) = assay: Test for inhibiting generation of PGE2 in H2O2-stimulated fibroblast (ELISA); conditions: for inhibition at 100 µg/mL: Fibroblast, 100 μg/ml, {1−(test sample−control)/(H2O2−control)}×100, read-out: Inhibition effect according to Equation 1, PGE2; for PGE2: fibroblast culture medium, H2O2 500 μM 24 hours, then test material (31, 32: 100 μg/ml) 48 hours, ELISA
Experimental: as §1

SMILES	inhibition at 100 µg/mL (IL-6 (Interleukin 6))	IL-6 (IL-6 (Interleukin 6))	inhibition at 100 µg/mL (IL-8 (Interleukin 8))	IL-8 (IL-8 (Interleukin 8))	inhibition at 100 µg/mL (PGE2 (Prostaglandin E2))	PGE2 (PGE2 (Prostaglandin E2))
C[C@@H]1O[C@@H](OC[C@H]2O[C@@H](Oc3c(-c4ccc(O)c(O)c4)oc4cc(O)cc(O)c4c3=O)[C@H](O)[C@@H](OC(=O)/C=C/c3ccc(O)cc3)[C@@H]2O)[C@H](O)[C@H](O[C@@H]2O[C@H](CO)[C@@H](O)[C@H](O)[C@H]2O)[C@H]1O [New Material 31, quercetin3-O-[3-O″-(E)-p-coumaroyl][β-D-glucopyranosyl-(1→3)-O-α-L-rhamnopyranosyl-(1→6)-O-β-D-glucopyranoside]]	29.2%	226 pg/mL	61.1%	235 pg/mL	51.7%	275 pg/mL
C[C@@H]1O[C@@H](OC[C@H]2O[C@@H](Oc3c(-c4ccc(O)c(O)c4)oc4cc(O)cc(O)c4c3=O)[C@H](O)[C@@H](OC(=O)/C=C/c3ccc(O)cc3)[C@@H]2O)[C@H](O)[C@H](O)[C@H]1O [New Material 32, quercetin3-O-[3-O″-(E)-p-coumaroyl][α-L-rhamnopyranosyl-(1→6)-O-β-D-glucopyranoside]]	29.2%	226 pg/mL	61.1%	235 pg/mL	48.3%	280 pg/mL
